Experimental data: EP0768085A1, “ANTIBACTERIAL AGENT” (DAIICHI PHARMACEUTICAL CO., LTD., priority 1994, dated 1996)
Values after ≈ are worked out from the molar mass of the structure shown. One block for each molecule: values may come before it.

Columns and labels:
Type in all cases: cell-based
[1] = tested on: methicillin-resistant Staphylococcus aureus (MRSA) isolated from humans; experiment: Antibacterial activity (IC), Mueller-Hinton agar containing the sample (Example 8, Table 43); conditions: Staphylococcus aureus, MRSA, 18 h
Protocol: (§1) The antibacterial action was evaluated by the inhibitory concentration (hereinafter abbreviated as IC) at which propagation of the bacteria cultured at 37°C for 18 hours was inhibited. Inhibition was determined by the turbidity of the medium. The expressions "IC≤100", "≤10", and "≤1" indicate that MIC-equivalent values obtained at the succesive […] dilution of the sample are 100-10 µg/ml, 10-1 µg/ml, and not more than 1 µg/ml, respectively. […] (In the subsequent Examples, the same rule applies correspondingly.) Table 39
(§2) A suitable amount of a sample was dissolved in dimethylsulfoxide (DMSO), after which the resulting solution was diluted with the same amount of sterilized distilled water to prepare a bulk sample of 1,000 µg/ml. Separately, a bacterial liquid for the test (methicillin-resistant Staphylococcus aureus (MRSA) isolated from humans) which had been cultured in Mueller-Hinton broth (product of DIFCO) was prepared and inoculated to a Mueller-Hinton agar (product of DIFCO) containing the sample so that the final inoculation amount of 10^6 CFU/ml was achieved. The final concentrations of the samples were 100, 10, and 1 µg/ml.
(§3) After culturing at 37°C for 18 hours, the antibacterial activity was evaluated in terms of IC in a manner similar to that described in Example 4.

[2] = tested on: Bordetella bronchiseptica (SM2-4); experiment: Antibacterial activity (IC), broth microplate as in Example 4 (Example 7, Table 42); conditions: 18 h
Protocol: (§4) A suitable amount of a sample was dissolved in dimethylsulfoxide (DMSO), and the resultant solution was diluted with the same amount of sterilized distilled water to prepare a bulk sample of 1,000 µg/ml. Mueller-Hinton broth (product of DIFCO) was dispensed into each well of 96-well microplate. Thereafter, the bulk specimen was added to the first well of a row, and successively diluted (10-fold each time) with sterilized distilled water. Separately, a bacterial cell suspension for the test (Staphylococcus aureus 209-P) which had been cultured in the above-mentioned broth overnight at 37°C was inoculated to each well so that the final inoculation amount of 10^6 CFU/ml was attained. The final concentrations of the samples were 100, 10, and 1 µg/ml.
as §1
In a manner similar to that described in Example 4, antibacterial activity of the invention compound was determined. The bacterium used for the test was Bordetella bronchiseptica (SM2-4).

[3] = tested on: Staphylococcus aureus TI-1; experiment: Antibacterial activity (IC), broth microplate as in Example 4 (Example 5, Table 40); conditions: TI1, 18 h
Protocol: as §4, §1
In a manner similar to that described in Example 4, antibacterial activity of the invention compound was determined. The bacterium used for the test was Staphylococcus aureus TI-1.

[4] = tested on: Pasteurella multocida (Kobe-6); experiment: Antibacterial activity (IC), broth microplate as in Example 4 (Example 6, Table 41); conditions: 18 h, origin pig
Protocol: as §4, §1
In a manner similar to that described in Example 4, antibacterial activity of the invention compound was determined. The bacterium used for the test was Pasteurella Kobe-6 (origin: pig; Pasteurella multocida).

[5] = tested on: Staphylococcus aureus 209-P; experiment: Antibacterial activity (IC), Mueller-Hinton broth, 96-well microplate (Example 4, Table 39); conditions: 37°C, 18 hours
Protocol: as §4, §1

Pasteurella from fish = experiment: Antibacterial activity (IC), agar as in Example 8, media with 1.5% NaCl, 25°C (Example 20, Tables 53-55); conditions: Pasteurella piscicida KP94-02
Procedure, shortened: (§5)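 Growth inhibition was scored by turbidity after culture at 25°C, with IC bands set from 2-fold-dilution MIC-equivalents. Samples were tested at final 100, 10 and 1 µg/ml in Mueller-Hinton agar with 1.5% NaCl, seeded with 10^6 CFU/ml of the fish isolates.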

Enterococcus from fish = experiment: as above
Procedure, shortened: as §5

[6] = tested on: Staphylococcus aureus (209-P); experiment: Antibacterial activity (IC), agar as in Example 8 (Example 15, Table 48); conditions: 18 h
Procedure, shortened: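 Agar dilution with Mueller-Hinton agar containing sample at final 100, 10 and 1 µg/ml, inoculated to 10^6 CFU/ml. Incubated at 37°C for 18 h, growth inhibition judged by medium turbidity. IC bands at successive 2-fold dilution: 100-10, 10-1, or ≤1 µg/ml.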

[7] = tested on: methicillin-resistant Staphylococcus aureus (MRSA) from humans; experiment: Antibacterial activity (IC), agar as in Example 8 (Example 19, Table 52); conditions: 18 h
Protocol: as §1, §2, §3
In a manner similar to that described in Example 8, antibacterial activity of a variety of ketonitrile derivatives shown in Table 52 was measured. The bacterium used for the test was methicillin-resistant Staphylococcus aureus (MRSA) from humans.

[8] = tested on: Pasteurella multocida (Kobe-6); experiment: Antibacterial activity (IC), agar as in Example 8 (Example 17, Table 50); conditions: 18 h, origin pig
Procedure, shortened: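 Agar dilution on Mueller-Hinton agar with compound at 100, 10 and 1 µg/ml, inoculated at 10^6 CFU/ml with pig-origin strain Kobe-6. After 18 h at 37 °C, IC scored from turbidity and reported as a band (≤100, ≤10, ≤1 µg/ml).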

[9] = tested on: Streptococcus aureus (TI-1); experiment: Antibacterial activity (IC), agar as in Example 8 (Example 16, Table 49); conditions: 18 h
Procedure, shortened: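 Broth-grown […] aureus (TI-1) inoculated onto Mueller-Hinton agar containing compound, per the MRSA method; DMSO/water dilutions at final 100, 10 and 1 µg/ml, 10^6 CFU/ml inoculum. After 18 h at 37°C, growth inhibition judged by turbidity; IC reported as bands (100-10, 10-1, ≤1 µg/ml).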

[10] = tested on: Bordetella bronchiseptica (SM2-4); experiment: Antibacterial activity (IC), agar as in Example 8 (Example 18, Table 51); conditions: 18 h
Protocol: as §1, §2, §3
(§6) In a manner similar to that described in Example 8, antibacterial activity of the invention compound was determined. The bacterium used for the test was Bordetella bronchiseptica (S1) and Bordetella bronchiseptica (SM2-4).

[11] = tested on: Bordetella bronchiseptica (S1); experiment: as above; conditions: 18 h
Protocol: as §1, §2, §3, §6

SMILES: Cc1cc(Oc2ccc(C(F)(F)F)cc2Cl)cc(OC(C)C(=O)C(C#N)c2ccc(Cl)c(Cl)c2)c1 (stereo not shown) [Compound No. 112, 4-[3-(2-chloro-4-trifluoromethylphenoxy)-5-methylphenoxy]-2-(3,4-dichlorophenyl)-3-oxopentanonitrile]
MIC (Pasteurella from fish): 1 to 10 µg/mL (≈ 1.84 to 18.4 µM) | IC (Enterococcus from fish; Enterococcus Seriolicida HI): ≤10 (10-1 µg/ml) | IC (Enterococcus from fish; Enterococcus Seriolicida KG86050): ≤10 (10-1 µg/ml) | IC (Enterococcus from fish; Enterococcus Seriolicida MS89060): ≤10 (10-1 µg/ml) | IC (Enterococcus from fish; Enterococcus Seriolicida MS89064): ≤10 (10-1 µg/ml) | IC (Enterococcus from fish; Enterococcus Seriolicida MS89066): ≤10 (10-1 µg/ml) | IC (Enterococcus from fish; Enterococcus Seriolicida MS89068): ≤10 (10-1 µg/ml) | IC (Enterococcus from fish; Enterococcus Seriolicida SE94-001): ≤10 (10-1 µg/ml) | MIC (Enterococcus from fish; Enterococcus Seriolicida SE94-002): 1 to 10 µg/mL (≈ 1.84 to 18.4 µM) | IC (Enterococcus from fish; Enterococcus Seriolicida SE94-003): ≤10 (10-1 µg/ml) | IC (Enterococcus from fish; Enterococcus Seriolicida SE94-004): ≤10 (10-1 µg/ml) | IC (Enterococcus from fish; Enterococcus Seriolicida SE94-005): ≤10 (10-1 µg/ml) | MIC [6]: ≤ 1 µg/mL | MIC ([7]; MRSA strain 891179): ≤ 1 µg/mL | MIC ([7]; MRSA strain 891185): ≤ 1 µg/mL | MIC ([7]; MRSA strain 891187): ≤ 1 µg/mL | MIC ([7]; MRSA strain 891192): ≤ 1 µg/mL | MIC ([7]; MRSA strain 900048): ≤ 1 µg/mL | MIC ([7]; MRSA strain 900056): ≤ 1 µg/mL | MIC [8]: ≤ 1 µg/mL | MIC [9]: ≤ 1 µg/mL | MIC [10]: 10 to 100 µg/mL (≈ 18.4 to 184 µM) | MIC [11]: 10 to 100 µg/mL (≈ 18.4 to 184 µM)

SMILES: Cc1cc(OC(C)C(=O)C(C#N)c2cccc(Br)c2)ccc1Oc1ccc(C(F)(F)F)cc1Cl (stereo not shown) [compound 45]
MIC ([1]; MRSA strain 891179, 37°C): 1 to 10 µg/mL (≈ 1.81 to 18.1 µM) | MIC ([1]; MRSA strain 891185, 37°C): 1 to 10 µg/mL (≈ 1.81 to 18.1 µM) | MIC ([1]; MRSA strain 891187, 37°C): 1 to 10 µg/mL (≈ 1.81 to 18.1 µM) | MIC ([1]; MRSA strain 891192, 37°C): 1 to 10 µg/mL (≈ 1.81 to 18.1 µM) | MIC ([1]; MRSA strain 900048, 37°C): 1 to 10 µg/mL (≈ 1.81 to 18.1 µM) | MIC ([1]; MRSA strain 900056, 37°C): 1 to 10 µg/mL (≈ 1.81 to 18.1 µM) | MIC [2]: 10 to 100 µg/mL (≈ 18.1 to 181 µM) | MIC [3]: ≤ 1 µg/mL | MIC [4]: 1 to 10 µg/mL (≈ 1.81 to 18.1 µM) | MIC [5]: 1 to 10 µg/mL (≈ 1.81 to 18.1 µM)

SMILES: Cc1cccc(C(C#N)C(=O)C(C)Oc2ccc(Oc3ncc(C(F)(F)F)cc3Cl)cc2)c1 (stereo not shown) [compound 16]
MIC [2]: 10 to 100 µg/mL (≈ 21.1 to 211 µM) | MIC [3]: 1 to 10 µg/mL (≈ 2.11 to 21.1 µM) | MIC [4]: 10 to 100 µg/mL (≈ 21.1 to 211 µM) | MIC [5]: 10 to 100 µg/mL (≈ 21.1 to 211 µM)

More lines, now with the values ahead:

MIC ([1]; MRSA strain 891179, 37°C): ≤ 1 µg/mL | MIC ([1]; MRSA strain 891185, 37°C): ≤ 1 µg/mL | MIC ([1]; MRSA strain 891187, 37°C): ≤ 1 µg/mL | MIC ([1]; MRSA strain 891192, 37°C): ≤ 1 µg/mL | MIC ([1]; MRSA strain 900048, 37°C): ≤ 1 µg/mL | MIC ([1]; MRSA strain 900056, 37°C): ≤ 1 µg/mL | MIC [2]: 10 to 100 µg/mL (≈ 18.4 to 184 µM) | MIC [3]: ≤ 1 µg/mL | MIC [4]: 1 to 10 µg/mL (≈ 1.84 to 18.4 µM) | MIC [5]: ≤ 1 µg/mL
SMILES: Cc1cc(OC(C)C(=O)C(C#N)c2ccc(Cl)c(Cl)c2)ccc1Oc1ccc(C(F)(F)F)cc1Cl (stereo not shown) [compound 44]

MIC [2]: 10 to 100 µg/mL (≈ 18.9 to 189 µM) | MIC [3]: 1 to 10 µg/mL (≈ 1.89 to 18.9 µM) | MIC [4]: 10 to 100 µg/mL (≈ 18.9 to 189 µM) | MIC [5]: 10 to 100 µg/mL (≈ 18.9 to 189 µM)
SMILES: CC(Oc1ccc(Oc2ncc(C(F)(F)F)cc2Cl)cc1)C(=O)C(C#N)c1ccc(Cl)cc1Cl (stereo not shown) [Compound No. 2, 4-[4-(3-chloro-5-trifluoromethyl-2-pyridyloxy)phenoxy]-2-(2,4-dichlorophenyl)-3-oxopentanonitrile]

MIC [2]: 10 to 100 µg/mL (≈ 19.4 to 194 µM)
SMILES: N#CC(C(=O)COc1ccc(Oc2ncc(C(F)(F)F)cc2Cl)cc1)c1ccc(Cl)cc1Cl (stereo not shown) [compound 9]
